Bridge positions count the residues as written; N and C are the ends. Square brackets hold non-standard residues; d marks the D form. Ends that are not written are not given here. Phe(3,5-F2) = N[C@@H](Cc1cc(F)cc(F)c1)C(=O)O; Hyp = O=C(O)[C@@H]1C[C@@H](O)CN1; BP = bis-pyrene
B1: NPs2, nanoparticles self-assembled from transformable peptide monomer 2 (TPM2′) BP-GGAAK-YCDGFYACYMDV (peptide)
peptide: {BP}-GGAAKYCDGFYACYMDV
modifications: disulfide 7-13 (inferred)
notes: Negative control with the HER2 ligand but without the beta-sheet forming peptide; Tested as nanoparticles of about 30 nm

Experiments:
4T1 tumour cells = assay: Flow cytometry binding of LXY30 to 4T1 cells; parameters: species or system murine; conditions: 1 μM biotinylated LXY30
Method: Experiments were repeated three times. 3×10^5 cells incubated with 1 μM biotinylated LXY30 for 30 min on ice, after washing with PBS followed by incubation with 1:500 streptavidin-PE (1 mg/mL) for 30 min, then run with flow cytometry.

[1] = target: T1, HER2 receptor on the surface of HER2+ breast cancer cells (MCF-7/C6, SKBR-3, BT474) (human, UniProt P04626 23-1255); assay: confocal microscopy on MCF-7/C6 cells, 8 h
T1 construct: whole, on cells; Endogenous HER2 on cell lines; MCF-7/C6 is derived from the human breast cancer line MCF-7 by fractionated irradiation; also called cell surface HER2; HER2 receptors of MCF-7/C6 cells

Molecule | binding to 4T1 tumour cells (4T1 tumour cells) | binding result [1]
cdG-Phe(3,5-diF)-G-Hyp-NcR ([dC][dD]G[Phe(3,5-F2)]G[Hyp]N[dC]R; also: cyclic peptide, ring type and places not given here) [LXY30] | did bind | –
B1 | – | binds

Reference: patent publication US20220387633A1, “SMART PEPTIDES AND TRANSFORMABLE NANOPARTICLES FOR CANCER IMMUNOTHERAPY” (The Regents of the University of California, priority 2019, published 2022)
